We go through 14 compounds from ChEMBL document CHEMBL3392967, “Phosphatidylinositol 3-Kinase (PI3K) and phosphatidylinositol 3-kinase-related kinase (PIKK) inhibitors: importance of the morpholine ring” (J Med Chem, 2015).

Where “and” joins values, the source holds several entries; their conditions need not be identical. Equal entries are not always repeated.

Series [1] addresses T1, DNA-dependent protein kinase catalytic subunit (Homo sapiens, UniProt P78527). Briefly: Inhibition of DNA-PK (unknown origin).
The target of series [2] is Phosphatidylinositol 4,5-bisphosphate 3-kinase catalytic subunit alpha isoform (Homo sapiens, UniProt P42336).
Phosphatidylinositol 4,5-bisphosphate 3-kinase catalytic subunit alpha isoform, sequence (P42336 whole entry, canonical isoform): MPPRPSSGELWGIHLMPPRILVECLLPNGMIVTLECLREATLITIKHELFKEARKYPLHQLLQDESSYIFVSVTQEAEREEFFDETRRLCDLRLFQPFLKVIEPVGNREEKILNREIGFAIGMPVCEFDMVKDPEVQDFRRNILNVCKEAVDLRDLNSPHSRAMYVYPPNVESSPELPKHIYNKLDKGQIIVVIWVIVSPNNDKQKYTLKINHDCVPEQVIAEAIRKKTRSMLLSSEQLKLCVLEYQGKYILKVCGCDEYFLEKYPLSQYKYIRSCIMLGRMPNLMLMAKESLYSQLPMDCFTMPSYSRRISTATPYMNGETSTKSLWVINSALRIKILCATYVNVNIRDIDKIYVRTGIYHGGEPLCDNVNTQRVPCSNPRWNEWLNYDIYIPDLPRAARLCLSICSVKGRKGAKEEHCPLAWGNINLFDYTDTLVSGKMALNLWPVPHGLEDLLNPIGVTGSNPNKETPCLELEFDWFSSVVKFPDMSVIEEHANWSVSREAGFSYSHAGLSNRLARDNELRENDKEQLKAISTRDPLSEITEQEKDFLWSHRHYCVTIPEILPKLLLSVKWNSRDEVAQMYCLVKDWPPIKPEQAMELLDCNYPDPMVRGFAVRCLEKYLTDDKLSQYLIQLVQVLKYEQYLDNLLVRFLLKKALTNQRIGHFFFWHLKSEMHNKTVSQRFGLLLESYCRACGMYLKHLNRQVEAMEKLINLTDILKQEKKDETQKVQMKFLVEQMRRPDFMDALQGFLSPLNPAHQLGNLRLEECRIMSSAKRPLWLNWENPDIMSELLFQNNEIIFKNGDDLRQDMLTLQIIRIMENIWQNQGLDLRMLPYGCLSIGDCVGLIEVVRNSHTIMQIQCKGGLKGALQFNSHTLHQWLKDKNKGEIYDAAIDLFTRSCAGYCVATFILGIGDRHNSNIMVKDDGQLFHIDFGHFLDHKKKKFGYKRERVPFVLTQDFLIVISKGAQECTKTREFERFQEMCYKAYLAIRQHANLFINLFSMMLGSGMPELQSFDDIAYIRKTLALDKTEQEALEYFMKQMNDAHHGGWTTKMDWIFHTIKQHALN
For series [3], the target named is T1, DNA-dependent protein kinase catalytic subunit. Briefly: Inhibition of DNA-PK purified from HeLa nuclear extracts assessed as EPPLSQEAFADLWKKR peptide substrate phosphorylation.
For series [4], the target named is Serine/threonine-protein kinase mTOR (Homo sapiens, UniProt P42345). Briefly: Inhibition of mTOR (unknown origin).
The nature of series [5]: Oral bioavailability in mouse. It counts as ADME, organism-based. As to conditions: in vivo.
For another series, the system named is MDA-MB-361. The series is described as follows: cells. As to conditions: Homo sapiens.
Series [6] in a line: Half life in mouse plasma at 25 mg/kg single dose. It counts as ADME, organism-based. Details: dose 25 mg/kg.
The target in series [7] is T2, Phosphatidylinositol 4,5-bisphosphate 3-kinase catalytic subunit delta isoform (Homo sapiens, UniProt O00329).
T2 sequence (O00329 whole entry): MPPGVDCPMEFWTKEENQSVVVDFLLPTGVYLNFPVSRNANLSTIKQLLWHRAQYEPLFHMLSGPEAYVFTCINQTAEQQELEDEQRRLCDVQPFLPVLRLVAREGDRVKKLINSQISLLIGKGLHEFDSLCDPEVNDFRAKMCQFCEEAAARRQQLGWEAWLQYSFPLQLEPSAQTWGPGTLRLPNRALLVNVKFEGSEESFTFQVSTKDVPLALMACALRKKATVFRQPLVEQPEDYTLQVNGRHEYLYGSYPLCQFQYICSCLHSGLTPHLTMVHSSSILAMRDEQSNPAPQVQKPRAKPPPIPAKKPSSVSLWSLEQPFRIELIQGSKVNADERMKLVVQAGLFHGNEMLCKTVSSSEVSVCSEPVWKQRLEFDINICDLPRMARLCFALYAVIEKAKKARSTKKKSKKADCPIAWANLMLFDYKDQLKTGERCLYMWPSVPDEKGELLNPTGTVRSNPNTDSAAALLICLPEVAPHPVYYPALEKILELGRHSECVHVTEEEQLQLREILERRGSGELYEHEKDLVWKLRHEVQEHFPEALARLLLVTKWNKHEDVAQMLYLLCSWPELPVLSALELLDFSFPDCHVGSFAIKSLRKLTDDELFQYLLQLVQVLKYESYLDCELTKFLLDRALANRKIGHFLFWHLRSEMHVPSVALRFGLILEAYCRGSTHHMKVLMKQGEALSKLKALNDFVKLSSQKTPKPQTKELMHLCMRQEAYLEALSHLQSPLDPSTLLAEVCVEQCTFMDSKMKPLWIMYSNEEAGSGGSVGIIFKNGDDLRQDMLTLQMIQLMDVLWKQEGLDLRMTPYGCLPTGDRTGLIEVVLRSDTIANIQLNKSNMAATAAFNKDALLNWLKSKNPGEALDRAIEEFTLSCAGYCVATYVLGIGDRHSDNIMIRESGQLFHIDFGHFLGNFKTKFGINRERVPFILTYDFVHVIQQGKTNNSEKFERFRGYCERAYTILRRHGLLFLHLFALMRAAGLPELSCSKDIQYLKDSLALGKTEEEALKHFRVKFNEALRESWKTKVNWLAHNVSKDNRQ

In series [8] the target is Serine/threonine-protein kinase mTOR (Rattus norvegicus, UniProt P42346). Briefly: Inhibition of rat derived mTOR using [gamma32P]ATP.
Series [9] can be described thus: Inhibition of rapamycin-insensitive mTORC2 (unknown origin). On the set-up: species or system Homo sapiens.
The nature of series [10]: Oral bioavailability in BALB/C mouse. The conditions noted are these: in vivo. It counts as ADME, organism-based.
Series [11] can be described thus: Half life in BALB/C mouse. In kind it is ADME, organism-based. The conditions noted are these: in vivo.

T1 sequence (P78527 whole entry, canonical isoform): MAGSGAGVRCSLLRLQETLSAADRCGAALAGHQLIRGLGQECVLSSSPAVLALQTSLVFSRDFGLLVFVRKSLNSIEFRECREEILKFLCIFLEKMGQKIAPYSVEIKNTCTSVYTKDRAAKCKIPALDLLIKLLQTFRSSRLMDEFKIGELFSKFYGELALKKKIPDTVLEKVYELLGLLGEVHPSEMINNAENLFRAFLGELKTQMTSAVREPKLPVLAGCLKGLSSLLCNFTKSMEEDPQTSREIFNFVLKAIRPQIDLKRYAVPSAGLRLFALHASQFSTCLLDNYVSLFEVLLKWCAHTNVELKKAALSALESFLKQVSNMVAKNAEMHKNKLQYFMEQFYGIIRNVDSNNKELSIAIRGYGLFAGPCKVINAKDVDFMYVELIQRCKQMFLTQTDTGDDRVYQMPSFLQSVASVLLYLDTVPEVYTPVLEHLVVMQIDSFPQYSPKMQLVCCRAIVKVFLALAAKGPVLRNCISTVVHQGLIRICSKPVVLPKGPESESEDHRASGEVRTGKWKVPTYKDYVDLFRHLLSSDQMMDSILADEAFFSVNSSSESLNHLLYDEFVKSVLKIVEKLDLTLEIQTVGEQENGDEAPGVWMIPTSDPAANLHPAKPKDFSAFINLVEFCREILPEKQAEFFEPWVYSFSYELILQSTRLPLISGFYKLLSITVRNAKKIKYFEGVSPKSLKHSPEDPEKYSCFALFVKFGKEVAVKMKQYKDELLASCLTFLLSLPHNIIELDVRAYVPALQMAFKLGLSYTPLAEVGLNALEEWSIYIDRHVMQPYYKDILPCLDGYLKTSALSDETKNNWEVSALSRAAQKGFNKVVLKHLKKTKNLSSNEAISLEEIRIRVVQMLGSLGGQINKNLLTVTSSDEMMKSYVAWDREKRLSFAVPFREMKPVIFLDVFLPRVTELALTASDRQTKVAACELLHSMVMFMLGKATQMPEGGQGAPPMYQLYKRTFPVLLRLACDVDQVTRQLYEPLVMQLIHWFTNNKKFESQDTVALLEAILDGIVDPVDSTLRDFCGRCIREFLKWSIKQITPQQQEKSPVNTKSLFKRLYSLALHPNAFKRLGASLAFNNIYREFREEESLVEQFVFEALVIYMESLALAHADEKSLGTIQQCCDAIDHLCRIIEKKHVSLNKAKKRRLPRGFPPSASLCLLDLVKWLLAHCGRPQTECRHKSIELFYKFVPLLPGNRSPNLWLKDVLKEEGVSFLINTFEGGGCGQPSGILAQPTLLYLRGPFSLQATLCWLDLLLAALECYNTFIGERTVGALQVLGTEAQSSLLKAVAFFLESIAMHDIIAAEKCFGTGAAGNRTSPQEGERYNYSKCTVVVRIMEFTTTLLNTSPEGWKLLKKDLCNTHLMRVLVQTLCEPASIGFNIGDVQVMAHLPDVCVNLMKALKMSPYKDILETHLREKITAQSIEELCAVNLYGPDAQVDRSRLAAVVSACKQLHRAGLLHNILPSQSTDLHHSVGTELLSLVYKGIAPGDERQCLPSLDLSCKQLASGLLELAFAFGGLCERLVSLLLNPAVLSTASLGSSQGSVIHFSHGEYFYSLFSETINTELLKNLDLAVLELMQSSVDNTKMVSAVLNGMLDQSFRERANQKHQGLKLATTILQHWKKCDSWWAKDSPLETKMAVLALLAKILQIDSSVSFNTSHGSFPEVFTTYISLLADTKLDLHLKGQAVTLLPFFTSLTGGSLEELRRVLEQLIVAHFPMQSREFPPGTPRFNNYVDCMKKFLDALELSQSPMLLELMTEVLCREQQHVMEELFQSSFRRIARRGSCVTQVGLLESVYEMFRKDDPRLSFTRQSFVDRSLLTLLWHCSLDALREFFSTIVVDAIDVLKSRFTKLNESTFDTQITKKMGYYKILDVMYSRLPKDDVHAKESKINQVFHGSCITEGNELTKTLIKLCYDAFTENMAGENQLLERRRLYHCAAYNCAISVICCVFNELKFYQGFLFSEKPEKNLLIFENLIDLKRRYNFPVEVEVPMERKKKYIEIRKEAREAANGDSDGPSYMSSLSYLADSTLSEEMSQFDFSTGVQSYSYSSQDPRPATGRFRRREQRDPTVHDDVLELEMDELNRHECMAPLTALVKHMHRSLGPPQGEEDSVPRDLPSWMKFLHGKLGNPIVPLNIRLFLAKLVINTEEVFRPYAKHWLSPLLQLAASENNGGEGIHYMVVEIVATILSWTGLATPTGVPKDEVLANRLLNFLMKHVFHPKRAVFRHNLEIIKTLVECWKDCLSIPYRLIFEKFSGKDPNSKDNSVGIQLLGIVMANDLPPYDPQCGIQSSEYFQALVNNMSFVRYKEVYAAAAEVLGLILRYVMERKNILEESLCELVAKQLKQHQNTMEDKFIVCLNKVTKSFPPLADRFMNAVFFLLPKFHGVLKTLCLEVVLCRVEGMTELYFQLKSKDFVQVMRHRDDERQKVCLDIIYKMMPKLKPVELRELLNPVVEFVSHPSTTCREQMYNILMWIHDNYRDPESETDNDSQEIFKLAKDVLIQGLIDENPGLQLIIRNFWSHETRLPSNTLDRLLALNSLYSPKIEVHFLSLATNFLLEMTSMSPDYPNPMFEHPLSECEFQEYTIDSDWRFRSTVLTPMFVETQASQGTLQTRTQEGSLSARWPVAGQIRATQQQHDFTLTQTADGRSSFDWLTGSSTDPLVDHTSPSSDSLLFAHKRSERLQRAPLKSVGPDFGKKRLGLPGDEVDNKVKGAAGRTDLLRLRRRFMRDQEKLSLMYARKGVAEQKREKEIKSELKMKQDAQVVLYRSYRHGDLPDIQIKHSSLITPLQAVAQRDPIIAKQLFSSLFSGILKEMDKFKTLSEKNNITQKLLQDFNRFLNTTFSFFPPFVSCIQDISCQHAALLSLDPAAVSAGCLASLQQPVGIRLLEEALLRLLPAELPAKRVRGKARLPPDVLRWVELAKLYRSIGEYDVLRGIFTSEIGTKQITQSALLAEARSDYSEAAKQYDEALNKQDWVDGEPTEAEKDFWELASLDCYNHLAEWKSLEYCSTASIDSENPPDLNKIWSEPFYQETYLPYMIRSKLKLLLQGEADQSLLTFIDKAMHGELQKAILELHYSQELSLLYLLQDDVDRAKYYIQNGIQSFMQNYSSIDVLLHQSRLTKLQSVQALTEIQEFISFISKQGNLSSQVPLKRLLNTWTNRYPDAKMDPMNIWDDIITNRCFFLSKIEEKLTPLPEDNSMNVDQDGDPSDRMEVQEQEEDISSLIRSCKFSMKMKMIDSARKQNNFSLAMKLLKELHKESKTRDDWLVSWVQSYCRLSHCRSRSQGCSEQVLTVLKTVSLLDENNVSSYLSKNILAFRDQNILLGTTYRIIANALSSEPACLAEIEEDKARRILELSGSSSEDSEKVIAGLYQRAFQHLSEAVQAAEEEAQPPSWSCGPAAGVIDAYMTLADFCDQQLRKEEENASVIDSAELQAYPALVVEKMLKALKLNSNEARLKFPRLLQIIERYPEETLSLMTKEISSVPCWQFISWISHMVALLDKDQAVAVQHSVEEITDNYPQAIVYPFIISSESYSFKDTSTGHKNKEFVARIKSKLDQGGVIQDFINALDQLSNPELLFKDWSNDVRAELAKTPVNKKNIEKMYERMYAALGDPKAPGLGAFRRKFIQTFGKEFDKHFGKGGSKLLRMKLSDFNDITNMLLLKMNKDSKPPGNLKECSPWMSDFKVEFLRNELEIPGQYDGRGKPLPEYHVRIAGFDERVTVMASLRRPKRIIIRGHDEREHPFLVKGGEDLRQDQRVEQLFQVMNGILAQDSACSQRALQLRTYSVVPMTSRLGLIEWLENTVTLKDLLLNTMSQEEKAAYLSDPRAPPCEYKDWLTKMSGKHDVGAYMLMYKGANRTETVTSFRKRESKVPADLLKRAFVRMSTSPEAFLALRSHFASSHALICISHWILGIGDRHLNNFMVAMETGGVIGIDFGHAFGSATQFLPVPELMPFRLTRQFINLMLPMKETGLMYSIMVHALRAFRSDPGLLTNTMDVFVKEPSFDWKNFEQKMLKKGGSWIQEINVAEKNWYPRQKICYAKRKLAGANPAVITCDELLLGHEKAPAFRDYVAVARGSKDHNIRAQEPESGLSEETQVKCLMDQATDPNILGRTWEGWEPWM

As for `COc1ccc2oc(=O)cc(N3CCOCC3)c2c1`, the IC50 (usually the concentration that gives 50% inhibition) in series [1] stood at 1200 nM. In turn, `O=c1cc(N2CCOCC2)oc2c(-c3cccc4c3oc3ccccc34)cccc12` had an IC50 in series [1] of 41 nM.

Compound `Cc1cc(C(C)Nc2ccccc2)c2nc(N3CCOCC3)cc(=O)n2c1` (stereo not drawn) had an IC50 in series [2] of over 1000 nM.

Consider `O=c1cc(-c2ccccc2)oc2cc(N3CCOCC3)cc(O)c12`, for which, in series [3], the IC50 worked out at 34 nM.

`O=c1cc(N2CCOCC2)nc2c(-c3cccc4c3sc3ccccc34)cccn12` came in with an IC50 in series [1] of 13 nM. As to `Cc1ccc2c(=O)cc(N3CCOCC3)oc2c1-c1cccc2c1sc1ccccc12`, in series [1], the IC50 is 5 nM and 14 nM.

Regarding `O=C(c1ccc(O)cc1)c1ccc(N2CCOCC2)cc1O`, the IC50 in series [3] turned out to be 35 nM. For `Oc1ccc2nc(-c3ccccc3)nc(N3CCOCC3)c2c1`, in series [2], the IC50 was 1300 nM.

In the case of `CNC(=O)Nc1ccc(-c2nc(N3CCOCC3)nc3c2cnn3C2CCOCC2)cc1`, the IC50 in series [4] was found to be 23 nM. Regarding `CCn1nnc2c(N3CCOCC3)nc(-c3ccc(NC(=O)Nc4ccc(C(=O)N5CCN(C)CC5)cc4)cc3)nc21`, the bioavailability (as a rule, the share of a dose that reaches the circulation, judged against a reference dose that is usually intravenous) in series [5] was 88.6%. Further, the IC50 in the series on MDA-MB-361 was determined as 10 nM; in [4], 3 nM.

As for `CN(C)C1CCN(C(=O)c2ccc(NC(=O)Nc3ccc(-c4nc(N5CCOCC5)nc(N5CCOCC5)n4)cc3)cc2)CC1` [GEDATOLISIB], in [6], the half-life (usually how long it takes for the measured level to halve) is 3.5 h. On to `O=c1cc(N2CCOCC2)oc2c(-c3ccccc3)cccc12` [LY-294002], for which the IC50 in [7] was 1600 nM; in series [8], 2500 nM. `Oc1cccc(-c2nc(N3CCOCC3)c3oc4ncccc4c3n2)c1` [PI-103] had an IC50 in series [9] of 83 nM. The compound `Cc1nc2c(-c3cnc(N)nc3)nc(N3CCOCC3)nc2n1C(C)C` [VS-5584] registered a bioavailability in series [10] of 100%. Further, in series [11], the half-life is 10 h.
